Earlier results on 1 compound are cited in US20130149346A1, “DABIGATRAN ETEXILATE-CONTAINING PHARMACEUTICAL COMPOSITION” (ratiopharm GmbH Graf-Arco-Strasse 3, priority 2010, published 2013).

For the series the following is noted: in the acidic environment.

On to `CCCCCCOC(=O)NC(=N)c1ccc(NCc2nc3cc(C(=O)N(CCC(=O)OCC)c4ccccn4)ccc3n2C)cc1` [dabigatran etexilate, 3-[(2-{[4-(hexyloxycarbonylamino-imino-methyl)-phenylamino]-methyl}-1-methyl-1H-benzimidazole-5-carbonyl)-pyridine-2-yl-amino]-propionic acid ethyl ester], for which the pH-dependent solubility entry is given as “greatly increased”.
